For assay [1], the target named is T1, Probable nicotinate-nucleotide adenylyltransferase (Staphylococcus aureus (strain N315), UniProt P65502). Format: functional, Staphylococcus aureus subsp. aureus N315. To be noted: read-out: IC50_Mean.
In assay [2] the target is T1, Probable nicotinate-nucleotide adenylyltransferase. Type of assay: functional, Staphylococcus aureus subsp. aureus N315.
Assay [3] addresses T2, Low molecular weight phosphotyrosine protein phosphatase (Homo sapiens, UniProt P24666).
T2 sequence (P24666 whole entry): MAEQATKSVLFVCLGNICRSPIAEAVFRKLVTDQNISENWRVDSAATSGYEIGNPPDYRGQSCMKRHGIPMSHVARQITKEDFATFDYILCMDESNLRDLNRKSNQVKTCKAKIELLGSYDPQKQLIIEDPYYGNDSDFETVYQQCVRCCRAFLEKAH
Type of assay: functional. To be noted: read-out: IC50_Mean.

In assay [4] the target is T2, Low molecular weight phosphotyrosine protein phosphatase. Type of assay: functional. To be noted: read-out: IC50_Mean. The source holds these as a separate data set.
Assay [5] concerns the target Dual specificity tyrosine-phosphorylation-regulated kinase 1A (Rattus norvegicus, UniProt Q63470). Type of assay: biochemical, Homo sapiens.
Assay [6] addresses T3, Tyrosine-protein phosphatase non-receptor type 22 (Homo sapiens, UniProt Q9Y2R2).
T3 sequence (Q9Y2R2 whole entry): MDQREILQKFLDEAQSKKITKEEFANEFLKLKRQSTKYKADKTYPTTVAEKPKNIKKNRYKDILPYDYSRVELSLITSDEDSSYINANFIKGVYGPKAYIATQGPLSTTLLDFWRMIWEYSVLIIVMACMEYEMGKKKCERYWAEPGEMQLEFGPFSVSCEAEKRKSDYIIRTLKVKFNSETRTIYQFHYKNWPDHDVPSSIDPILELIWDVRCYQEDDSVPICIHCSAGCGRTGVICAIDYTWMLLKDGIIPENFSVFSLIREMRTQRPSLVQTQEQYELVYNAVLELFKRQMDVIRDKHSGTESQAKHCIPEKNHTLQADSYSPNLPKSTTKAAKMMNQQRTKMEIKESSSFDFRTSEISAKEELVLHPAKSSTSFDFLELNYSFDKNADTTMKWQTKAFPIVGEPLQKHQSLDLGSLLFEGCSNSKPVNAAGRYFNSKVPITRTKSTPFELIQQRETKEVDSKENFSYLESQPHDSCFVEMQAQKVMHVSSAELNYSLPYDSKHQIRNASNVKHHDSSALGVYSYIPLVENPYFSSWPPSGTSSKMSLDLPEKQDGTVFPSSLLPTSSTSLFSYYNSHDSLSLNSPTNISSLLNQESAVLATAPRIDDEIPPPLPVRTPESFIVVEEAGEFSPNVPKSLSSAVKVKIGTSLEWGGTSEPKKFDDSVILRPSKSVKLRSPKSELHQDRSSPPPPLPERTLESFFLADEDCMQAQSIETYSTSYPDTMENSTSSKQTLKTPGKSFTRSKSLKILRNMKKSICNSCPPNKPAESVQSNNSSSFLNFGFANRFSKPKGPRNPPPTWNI
The experiment in a line: PTPN22 enzyme inhibitors – biochemical, fluorescence, LYP catalytic domain, selectivity assay for LMPTP inhibitor project, dose response (AID 652006). Type of assay: functional. To be noted: read-out: IC50_Mean.

Assay [7] addresses Arf-GAP with SH3 domain, ANK repeat and PH domain-containing protein 1 (Homo sapiens, UniProt Q9ULH1). Format: functional.
Another assay deals with T4, Estrogen receptor (Homo sapiens, UniProt P03372).
T4 sequence (P03372 whole entry): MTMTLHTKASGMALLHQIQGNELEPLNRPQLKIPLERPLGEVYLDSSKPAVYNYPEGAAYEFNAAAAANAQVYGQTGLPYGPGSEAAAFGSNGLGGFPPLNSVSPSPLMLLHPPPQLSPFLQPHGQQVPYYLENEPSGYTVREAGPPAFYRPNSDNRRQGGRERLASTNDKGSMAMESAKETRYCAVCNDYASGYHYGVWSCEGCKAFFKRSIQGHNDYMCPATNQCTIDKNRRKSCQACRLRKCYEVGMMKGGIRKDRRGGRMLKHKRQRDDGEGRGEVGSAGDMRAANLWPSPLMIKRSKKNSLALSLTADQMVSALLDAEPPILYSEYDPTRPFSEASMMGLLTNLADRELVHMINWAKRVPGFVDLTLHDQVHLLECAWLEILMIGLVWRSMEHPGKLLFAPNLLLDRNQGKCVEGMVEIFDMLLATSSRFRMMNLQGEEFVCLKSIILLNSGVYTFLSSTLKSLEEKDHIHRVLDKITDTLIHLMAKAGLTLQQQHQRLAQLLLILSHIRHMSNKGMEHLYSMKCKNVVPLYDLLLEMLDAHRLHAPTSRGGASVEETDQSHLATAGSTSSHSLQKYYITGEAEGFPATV

In assay [8] the target is Photoreceptor-specific nuclear receptor (Homo sapiens, UniProt Q9Y5X4). Format: functional, cell-based.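 Also: CHO-S cells with Gal4-NCOR and VP16-NR2E3 two-hybrid luciferase reporter.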
For assay [9], the target named is ADP-ribosylation factor GTPase-activating protein 1 (Rattus norvegicus, UniProt Q62848). The experiment in a line: Fluorescence polarization-based biochemical high throughput dose response screening assay to identify inhibitors of ADP-ribosylation factor GTPase activating protein 1 (ARFGAP1). Type of assay: functional. On the technique in general: Fluorescence polarisation rises when a labelled molecule tumbles more slowly, as on binding a larger partner.

The target of assay [10] is T5, Sentrin-specific protease 1 (Homo sapiens, UniProt Q9P0U3).
T5 sequence (Q9P0U3 whole entry): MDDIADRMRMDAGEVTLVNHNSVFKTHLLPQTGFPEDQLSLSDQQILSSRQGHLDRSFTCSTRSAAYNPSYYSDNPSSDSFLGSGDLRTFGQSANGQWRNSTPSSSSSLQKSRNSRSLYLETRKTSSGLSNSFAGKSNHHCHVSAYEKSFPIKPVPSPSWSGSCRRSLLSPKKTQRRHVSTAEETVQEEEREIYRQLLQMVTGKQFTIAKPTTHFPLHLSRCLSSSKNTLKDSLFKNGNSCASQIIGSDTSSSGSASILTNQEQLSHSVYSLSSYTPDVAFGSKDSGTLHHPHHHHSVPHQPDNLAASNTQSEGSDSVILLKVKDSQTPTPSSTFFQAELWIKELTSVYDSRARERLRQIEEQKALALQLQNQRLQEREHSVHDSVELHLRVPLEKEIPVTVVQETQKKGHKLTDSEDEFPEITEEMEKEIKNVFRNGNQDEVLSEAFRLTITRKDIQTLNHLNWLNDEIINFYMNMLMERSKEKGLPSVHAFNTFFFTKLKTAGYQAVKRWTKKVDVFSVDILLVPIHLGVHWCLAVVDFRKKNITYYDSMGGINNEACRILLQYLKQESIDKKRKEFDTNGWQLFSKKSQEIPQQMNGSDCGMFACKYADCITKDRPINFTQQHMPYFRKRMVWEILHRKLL
The experiment in a line: SENP1 catalytic domain blockers, concentration series – biochemical, kinetic FRET, dose response (AID 651697). Type of assay: functional. To be noted: read-out: IC50_Mean.

Assay [11] addresses T5, Sentrin-specific protease 1. The experiment in a line: Dose response confirmation of small molecule inhibitors of the catalytic domain of the SUMO protease, SENP1 in a FRET assay. The settings on record: read-out: IC50_Mean. Type of assay: functional.
Assay [12] has as its target Nuclear receptor subfamily 5 group A member 2 (Homo sapiens, UniProt O00482). Format: functional, cell-based.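 Also: HEK293T cells transfected with LRH-1 and a StAR promoter luciferase reporter; potency for inhibitors that lower LRH-1 driven reporter light.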
Assay [13] in a line: nonselective StAR promoter luciferase inhibitors – cell-based, luminescence, luciferase reporter, counter-screen for LRH-1 inverse agonist project, dose response (AID 651969). Format: functional. Background: In a reporter assay the amount or activity of a reporter protein is the signal.
In a further assay the target is Steroidogenic factor 1 (Homo sapiens, UniProt Q13285). The experiment in a line: Counterscreen for inverse agonists of the liver receptor homolog-1 (LRH-1; NR5A2): Luminescence-based cell-based high throughput dose response assay to identify inverse agonists of the Steroidogenic Factor 1 Nuclear Receptor (SF1; NR5A1). Type of assay: functional.
A short description of assay [14]: acridine orange displacement from DNA – biochemical, fluorescence polarization, cherry-pick, artefact control for RAD54 inhibitor project, dose response (AID 651673). Type of assay: functional.
Assay [15] addresses T6, DNA repair and recombination protein RAD54-like (Homo sapiens, UniProt Q92698).
T6 sequence (Q92698 whole entry): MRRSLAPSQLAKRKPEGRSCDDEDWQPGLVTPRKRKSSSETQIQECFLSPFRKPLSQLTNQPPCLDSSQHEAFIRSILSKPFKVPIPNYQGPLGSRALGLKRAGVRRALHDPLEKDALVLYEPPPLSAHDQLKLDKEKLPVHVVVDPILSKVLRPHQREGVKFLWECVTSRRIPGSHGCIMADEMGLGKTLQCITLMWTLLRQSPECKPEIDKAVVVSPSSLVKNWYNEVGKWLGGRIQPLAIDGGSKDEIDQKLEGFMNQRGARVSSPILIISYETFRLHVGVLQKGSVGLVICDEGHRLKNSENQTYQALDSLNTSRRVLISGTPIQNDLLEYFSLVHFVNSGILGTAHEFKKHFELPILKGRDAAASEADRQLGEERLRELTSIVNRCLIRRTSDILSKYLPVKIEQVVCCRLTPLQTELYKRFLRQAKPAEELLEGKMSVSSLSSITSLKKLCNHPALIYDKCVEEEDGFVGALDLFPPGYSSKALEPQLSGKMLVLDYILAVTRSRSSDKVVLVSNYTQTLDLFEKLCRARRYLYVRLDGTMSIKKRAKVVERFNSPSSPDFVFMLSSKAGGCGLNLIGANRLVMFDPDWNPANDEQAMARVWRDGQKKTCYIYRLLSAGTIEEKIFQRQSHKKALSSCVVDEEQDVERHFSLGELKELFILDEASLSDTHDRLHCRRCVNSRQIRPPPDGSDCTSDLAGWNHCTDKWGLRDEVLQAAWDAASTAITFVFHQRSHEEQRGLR
As to the kind of experiment: RAD54 Holliday junction migration blockers – biochemical, fluorescence, cherry-picked samples, dose series, confirmation (AID 651657). Type of assay: functional.

Assay [16] in a line: mouse fibroblast viability loss – cell-based, cherry-pick samples, set 2, cytotoxicity control for T. cruzi growth inhibitor project, dose response (AID 651817). Type of assay: functional. The settings on record: NIH3T3.
In a further assay the target is Paired box protein Pax-8 (Homo sapiens, UniProt Q06710). The experiment in a line: PAX8 transcriptional activity inhibition in RMG-I – RMG-I cells, luciferase, cherry-pick, dose response (AID 687027).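 Also: luciferase reporter driven by Pax8 target thyroperoxidase promoter measured by SteadyGlo luminescence.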 Format: functional, cell-based.

Broadly, the AC50 is the concentration at which the activity in the assay is half-maximal.

Each structure is given as a SMILES string. Active and inactive are the calls of the source.

T1 sequence (P65502 whole entry): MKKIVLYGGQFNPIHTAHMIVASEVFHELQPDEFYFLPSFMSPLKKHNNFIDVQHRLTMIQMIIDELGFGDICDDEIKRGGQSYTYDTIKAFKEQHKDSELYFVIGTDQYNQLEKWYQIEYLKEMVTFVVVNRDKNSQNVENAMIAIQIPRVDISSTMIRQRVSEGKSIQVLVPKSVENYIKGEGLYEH
Sequence of ADP-ribosylation factor GTPase-activating protein 1 (Q62848 whole entry): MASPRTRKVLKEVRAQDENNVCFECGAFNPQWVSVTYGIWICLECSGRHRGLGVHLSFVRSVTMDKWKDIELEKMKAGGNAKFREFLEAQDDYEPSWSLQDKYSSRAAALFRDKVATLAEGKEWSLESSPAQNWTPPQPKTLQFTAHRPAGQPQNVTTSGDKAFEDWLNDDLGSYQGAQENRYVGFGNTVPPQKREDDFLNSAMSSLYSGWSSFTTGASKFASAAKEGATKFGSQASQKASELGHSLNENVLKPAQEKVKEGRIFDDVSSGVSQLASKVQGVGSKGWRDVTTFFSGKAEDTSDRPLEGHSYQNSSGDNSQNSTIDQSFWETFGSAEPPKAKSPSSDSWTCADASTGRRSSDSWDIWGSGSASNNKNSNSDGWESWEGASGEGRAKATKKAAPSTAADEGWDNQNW
Sequence of Arf-GAP with SH3 domain, ANK repeat and PH domain-containing protein 1 (Q9ULH1 whole entry, the tested form may be a part): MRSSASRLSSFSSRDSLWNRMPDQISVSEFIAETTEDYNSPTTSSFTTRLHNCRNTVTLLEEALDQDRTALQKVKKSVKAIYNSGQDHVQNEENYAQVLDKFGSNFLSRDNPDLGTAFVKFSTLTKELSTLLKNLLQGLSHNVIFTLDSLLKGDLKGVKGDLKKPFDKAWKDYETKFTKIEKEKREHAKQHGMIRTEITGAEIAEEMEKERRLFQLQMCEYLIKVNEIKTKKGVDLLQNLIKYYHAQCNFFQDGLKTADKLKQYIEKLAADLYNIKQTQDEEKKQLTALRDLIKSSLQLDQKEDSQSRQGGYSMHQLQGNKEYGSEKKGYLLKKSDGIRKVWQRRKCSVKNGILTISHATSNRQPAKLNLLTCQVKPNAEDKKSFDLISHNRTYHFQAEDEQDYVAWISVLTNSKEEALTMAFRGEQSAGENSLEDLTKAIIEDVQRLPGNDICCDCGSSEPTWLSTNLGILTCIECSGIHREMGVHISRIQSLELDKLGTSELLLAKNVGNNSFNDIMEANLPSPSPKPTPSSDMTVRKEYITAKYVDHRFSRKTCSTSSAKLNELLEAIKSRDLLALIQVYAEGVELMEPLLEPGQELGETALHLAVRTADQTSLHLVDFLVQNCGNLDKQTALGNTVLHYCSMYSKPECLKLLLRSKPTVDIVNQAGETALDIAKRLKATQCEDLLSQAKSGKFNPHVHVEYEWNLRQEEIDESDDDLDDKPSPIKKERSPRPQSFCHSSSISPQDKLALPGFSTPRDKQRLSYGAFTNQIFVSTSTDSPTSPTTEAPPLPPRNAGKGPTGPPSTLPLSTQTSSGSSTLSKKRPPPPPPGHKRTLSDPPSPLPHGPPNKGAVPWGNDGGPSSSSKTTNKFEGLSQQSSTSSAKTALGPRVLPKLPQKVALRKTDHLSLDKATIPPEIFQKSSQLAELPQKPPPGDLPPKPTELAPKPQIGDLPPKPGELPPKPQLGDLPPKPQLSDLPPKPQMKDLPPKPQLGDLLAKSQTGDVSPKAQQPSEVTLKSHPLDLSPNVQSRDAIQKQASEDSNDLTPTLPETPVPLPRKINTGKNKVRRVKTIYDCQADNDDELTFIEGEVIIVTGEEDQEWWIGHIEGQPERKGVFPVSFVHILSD
Sequence of Paired box protein Pax-8 (Q06710 whole entry): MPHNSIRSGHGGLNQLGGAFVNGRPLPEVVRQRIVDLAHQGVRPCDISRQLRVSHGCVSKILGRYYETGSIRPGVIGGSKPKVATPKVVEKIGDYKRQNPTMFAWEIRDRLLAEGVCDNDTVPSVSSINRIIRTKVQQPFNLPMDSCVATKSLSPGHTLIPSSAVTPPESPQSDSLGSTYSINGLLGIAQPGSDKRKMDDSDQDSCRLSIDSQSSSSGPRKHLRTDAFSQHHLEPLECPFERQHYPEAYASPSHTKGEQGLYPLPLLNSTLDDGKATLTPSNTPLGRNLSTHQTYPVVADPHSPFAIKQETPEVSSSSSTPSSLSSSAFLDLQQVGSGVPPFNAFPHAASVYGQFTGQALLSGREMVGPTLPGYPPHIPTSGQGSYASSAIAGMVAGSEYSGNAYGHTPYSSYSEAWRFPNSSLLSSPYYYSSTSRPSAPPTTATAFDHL
Sequence of Photoreceptor-specific nuclear receptor (Q9Y5X4 whole entry, the tested form may be a part): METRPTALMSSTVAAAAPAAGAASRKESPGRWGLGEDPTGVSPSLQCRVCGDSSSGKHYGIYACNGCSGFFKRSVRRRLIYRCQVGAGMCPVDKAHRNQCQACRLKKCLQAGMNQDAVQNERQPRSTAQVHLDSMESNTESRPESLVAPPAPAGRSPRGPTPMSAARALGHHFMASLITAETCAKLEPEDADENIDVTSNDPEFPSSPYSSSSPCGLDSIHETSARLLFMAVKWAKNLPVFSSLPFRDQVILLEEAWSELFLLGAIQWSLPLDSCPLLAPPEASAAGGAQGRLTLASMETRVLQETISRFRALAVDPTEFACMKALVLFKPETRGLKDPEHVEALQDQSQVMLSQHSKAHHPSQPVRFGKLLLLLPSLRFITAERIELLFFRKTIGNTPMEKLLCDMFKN
Sequence of Nuclear receptor subfamily 5 group A member 2 (O00482 whole entry): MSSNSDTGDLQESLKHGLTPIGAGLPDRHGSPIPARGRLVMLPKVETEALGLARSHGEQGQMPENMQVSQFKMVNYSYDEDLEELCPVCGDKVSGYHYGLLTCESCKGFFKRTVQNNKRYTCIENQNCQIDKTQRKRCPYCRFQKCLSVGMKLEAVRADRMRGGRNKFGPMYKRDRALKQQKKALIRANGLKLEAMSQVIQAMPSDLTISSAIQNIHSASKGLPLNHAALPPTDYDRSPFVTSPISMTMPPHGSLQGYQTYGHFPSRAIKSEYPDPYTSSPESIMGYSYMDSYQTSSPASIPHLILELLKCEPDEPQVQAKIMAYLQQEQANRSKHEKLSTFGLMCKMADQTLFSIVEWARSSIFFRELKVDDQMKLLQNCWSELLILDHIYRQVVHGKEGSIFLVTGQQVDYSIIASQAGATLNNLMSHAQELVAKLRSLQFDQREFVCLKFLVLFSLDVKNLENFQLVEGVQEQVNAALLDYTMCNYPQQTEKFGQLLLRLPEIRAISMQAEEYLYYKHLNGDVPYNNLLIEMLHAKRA
Sequence of Steroidogenic factor 1 (Q13285 whole entry): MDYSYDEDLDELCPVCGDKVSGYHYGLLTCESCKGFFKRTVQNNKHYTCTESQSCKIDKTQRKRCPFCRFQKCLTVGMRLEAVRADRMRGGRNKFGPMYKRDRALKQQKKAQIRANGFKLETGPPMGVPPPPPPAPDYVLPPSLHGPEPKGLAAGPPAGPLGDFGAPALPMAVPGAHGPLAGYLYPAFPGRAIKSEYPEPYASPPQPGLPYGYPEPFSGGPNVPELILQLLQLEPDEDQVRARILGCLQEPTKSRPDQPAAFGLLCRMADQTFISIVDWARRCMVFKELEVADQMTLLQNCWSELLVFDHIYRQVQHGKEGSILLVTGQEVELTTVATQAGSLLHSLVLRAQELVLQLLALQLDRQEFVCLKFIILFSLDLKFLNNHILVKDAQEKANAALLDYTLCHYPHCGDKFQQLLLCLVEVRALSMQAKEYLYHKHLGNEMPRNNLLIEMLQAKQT

In the case of `CC(C)(C)n1nc2c(c1NC(=O)c1ccc(S(=O)(=O)N3CCCC3)cc1)CSC2`, the IC50 was 36.1 µM (active) in [1] and 12.7 µM (active) in assay [2].

On to `Cc1ccccc1Nc1cc(C)c2c(O)cccc2n1`, for which the figures for the IC50 in assay [3], in [4] and in assay [6] were 6.78 µM (active), 22.7 µM (inactive) and 80 µM (inactive), respectively. In addition, the AC50 in assay [5] is 6.73 µM (active).

For `O=C(CSc1nnnn1-c1ccccc1)Nc1nsc(-c2ccc(Cl)cc2)n1`, the IC50 was 23.6 µM (inactive) in assay [7], 20.8 µM (active) at Estrogen receptor, 0.185 µM (active) in assay [8] and 37.6 µM (inactive) in assay [9].

`CCN(CC(=O)Nc1ccc(NC(C)=O)cc1)C(=O)CSc1ncnc2sc(C)c(C)c12`: the IC50 in [10] is 5.42 µM (active); in [11], 4.9 µM (active).

In the case of `COc1ccc(CCNC(=O)COC(=O)c2cccn2C)cc1`, the IC50 in assay [12] is 35.9 µM (inactive); in assay [13] it was 35.9 µM (inactive); on Steroidogenic factor 1, 7.32 µM (active).

For the compound `CCN(CC)CCNc1cccc2sc3ccccc3c(=O)c12`, the IC50 in assay [11] was 46.3 µM (inactive). Moreover, the AC50 in assay [14] was 51.4 µM (active); in assay [15], 6.59 µM (active).

As for `Cc1ccc(S(=O)(=O)Nc2ccc3c(c2)CC(=O)N([C@H](C)CO)C[C@H](C)[C@@H](CN(C)Cc2ccc(Cl)c(Cl)c2)O3)cc1`, the concentration at half-maximal activity (AC50) is 13 µM (active) in assay [16] and 13.3 µM (active) on Paired box protein Pax-8.

The values above are taken from ChEMBL document CHEMBL1201862, “PubChem BioAssay data set” (2004).
